Patent US20160039936A1, “FIBROBLAST GROWTH FACTOR RECEPTOR INHIBITION FOR THE TREATMENT OF DISEASE” (UNIVERSITY OF MIAMI, priority 2011, published 2016)
Entries after “also recorded” stand apart in the source; their conditions may differ.

Columns and labels:
[1] = test system: isolated neonatal rat ventricular cardiac myocytes (NRVM); assay: Surface area (hypertrophy) of isolated NRVM, immunocytochemistry and morphometry (Examples 1-2); type: cell-based; settings: for FGF2-induced increase in cell surface area (hypertrophy) in presence of inhibitor: 48 h FGF2, inhibitor pre-treated 60 min at Table 2 concentration; for FGF23-induced increase in cell surface area (hypertrophy) in presence of inhibitor: 48 h FGF23, inhibitor pre-treated 60 min at Table 2 concentration; for cell surface area: 48 h incubation with the FGF alone
Method: NRVM were isolated using a standard isolation system (Worthington Biochemical Corporation) (Toraason et al., Toxicology, 56(1):107-117, 1989). Hearts from 1-2 day old Sprague Dawley rats (Charles River) were harvested, minced in calcium- and magnesium-free Hank's Balanced Salt Solution (HBSS), and the tissue digested with 50 μg/ml trypsin at 4° C. for 20-24 hours. Soybean trypsin inhibitor in HBSS was added and the tissue was further digested with collagenase (in Leibovitz L-15 medium) under slow rotation (15 rpm) at 37° C. for 45 minutes. Cells were released by gently triturating the suspension 20 times with a standard 10 ml plastic serological pipette and filtering it twice through a cell strainer (70 μm, BD Falcon). Cells were incubated at room temperature for 20 minutes and spun at 100 g for 5 minutes. The cell pellet was resuspended in plating medium [Dulbecco's Modified Eagle Medium (DMEM; Cellgro) with 17% Media 199 (Invitrogen), 15% fetal bovine serum (FBS; Invitrogen) and 1% penicillin/streptomycin solution (P/S; Invitrogen)]. Cells were counted using a hemocytometer.
Cells were plated on glass and plastic surfaces which were coated with laminin (Invitrogen; 10μg/ml in PBS) at room temperature for 1 hour prior to plating. For immunofluorescence analysis, 1×10^6 cells were seeded per well on glass coverslips in 6-well plates. For protein and RNA isolation, 2×10^6 cells were seeded in 6 cm-culture dishes. Cells were left undisturbed in plating medium at 37° C. for 72 hours and then cultured in maintenance medium (DMEM with 20% Media 199, 1% insulin-transferrin-sodium selenite solution (ITS; Sigma-Aldrich) and 1% P/S) in the presence of 100 μM 5-bromo-2′-deoxyuridine (BrdU; Sigam-Aldrich) to eliminate proliferating non-myocytes resulting in a relatively pure population of isolated cardiac myocytes (Bishopric et al., 1987). After 4 days, isolated cardiac myocytes were cultured in BrdU-containing maintenance medium in the presence of recombinant murine FGF23 (26.1 kDa, 251 amino acids; R&D Systems) or FGF2 (16.2 kDa, 144 amino acids; R&D Systems) for 48 hours.
We analyzed isolated NRVM on laminin-coated glass coverslips by immunocytochemsitry according to our established protocols (Faul et al., Cell Biol., 169(3):415-424, 2005; Faul et al., Cell Biol., 27(23):8215-8227, 2007). The mouse monoclonal antibody against sarcomeric α-actinin (EA-53; Sigma-Aldrich) was used at 1:1000 and Cy3-conjugated goat-anti mouse (Jackson Immuno Research) as secondary antibody at 1:750. To visualize nuclei, fixed cells were incubated with 4′,6-diamidino-2-phenylindole (DAPI; 400 ng/ml in PBS) for 5 minutes. Immunofluorescence images were taken on a Leica TCS-SP5 confocal microscope with a 63× oil objective with a 1.6× zoom. Leica AF6000 fluorescence software was used to measure the cell surface area based on α-actinin-positive staining.
To assess the signaling pathways involved in FGF23- and FGF2-mediated hypertrophy, we analyzed the morphometry of plated cells that were pre-treated with specific inhibitors for 60 minutes prior to the addition of the FGFs at varying concentrations.

[2] = test system: neonatal mouse ventricular myocytes (NMVM); assay: Hypertrophic growth and β-MHC of isolated NMVM (wild-type or FGFR4−/−); type: cell-based; settings: 48 h
Method: NMVM were isolated enzymatically (Kreusser et al., 2014). Briefly, hearts from 1-3 day-old mice were harvested, minced in PBS/glucose and further digested with collagenase type 2 (0.2% w/v) and DNase (0.05% w/v) on a rotary shaker at 37° C. for 11 minutes. Cells were then released from the tissue by triturating the suspension twice with a standard 10 ml plastic serological pipette, transferred to DF10 medium (Dulbecco's Modified Eagle Medium/Ham's Nutrient Mixture F12 adjusted to 17 mM NaHCO2 containing 2 mM L-glutamine, 1% P/S and 10% FBS), and stored on ice. The remaining tissue was further incubated in PBS/glucose/collagenase/DNase solution on a rotary shaker at 37° C. for 11 minutes. The trituration and incubation steps were repeated 5-7 times until the tissue was completely dissolved. Cells were pelleted at 300 g for 5 minutes, resuspended in DF20 media (Dulbecco's Modified Eagle Medium/Ham's Nutrient Mixture F12 adjusted to 17 mM NaHCO2 containing 2 mM L-glutamine, 1% P/S and 20% FBS), and preplated for 1 hour to eliminate fibroblasts. Remaining cells were counted using a hemocytometer and plated on glass and plastic surfaces, which were coated with laminin (Sigma-Aldrich; 10 μg/ml in PBS) at room temperature for 1 hour prior to plating. For immunofluorescence analysis, 3×10^5 cells were seeded per well on glass coverslips in 24-well plates. For Western blot analyses of total protein extracts, 5×10^6 cells were seeded in 10 cm-culture dishes. Cells were left undisturbed in DF20 medium at 37° C. for 72 hours, starved overnight with DF medium (Dulbecco's Modified Eagle Medium/Ham's Nutrient Mixture F12 adjusted to 17 mM NaHCO2 containing 2 mM L-glutamine, 1% P/S), and treated in DF medium with recombinant FGF23, FGF2 (both at 100 ng/ml) or AngII (1 μM, Sigma-Aldrich) for 48 hours.
HEK293 cells, NRVM or NMVM were treated with growth factors for 30 minutes to analyze activation of signal transduction mediators, or for 48 hours to analyze expression levels of hypertrophic marker proteins. Cells were scraped from 6-well plates using 500 μl CHAPS extraction buffer (20 mM Tris-HCl pH7.5, 500 mM NaCl, 0.5% CHAPS, protease inhibitor cocktail (Roche), protein phosphatase inhibitors [Sigma-Aldrich]) and incubated on ice for 30 minutes. The cell lysate was centrifuged at 14,000 rpm and 4° C. for 30 minutes, and the supernatant boiled in sample buffer and analyzed by SDS-PAGE and immunoblotting. For protein extraction from mouse hearts, tissue was isolated, minced and homogenized in RIPA extraction buffer (50 mM Tris-HCl pH 7.5, 200 mM NaCl, 1% Triton X-100, 0.25% DOC, 1 mM EDTA, 1 mM EGTA, protease and phosphatase inhibitors) at 1:10 (w:v), and protein lysates were prepared as described above.
Cultured cells were fixed in 2% PFA (in 5 mg/ml sucrose) for 5 minutes and permeabilized in 1% Triton X-100 (in PBS) for 10 minutes. We analyzed hypertrophic growth of isolated NRVM and NMVM on laminin-coated glass coverslips after 48 hours of treatment with growth factors. For FGFR4 expression and localization analyses, untreated NMVM from wild-type and FGFR4^−/− mice were immunolabeled. The mouse monoclonal antibody against sarcomeric α-actinin (EA-53; Sigma-Aldrich) was used at 1:1,000, and rabbit polyclonal anti-FGFR4 (C-16; Santa Cruz) at 1:50. Cy3-conjugated goat-anti mouse and Alexa488-conjugated goat-anti rabbit (Jackson Immuno Research) were used as secondary antibodies at 1:300. To visualize nuclei, fixed cells were incubated with 4′,6-diamidino-2-phenylindole (DAPI; 400 ng/ml in PBS) for 10 minutes. Immunofluorescence images were taken on a Leica TCS-SP5 confocal microscope with a 63× oil objective.
Myocyte cross-sectional area was measured based on α-actinin-positive staining using Leica AF6000 fluorescence software. […]

C57BL/6 mice = assay: Intravenous injection of FGFs (with or without Fc-FGFR decoy receptors) in mice; type: in vivo, mouse; settings: 40 μg/kg FGF, ten times over five days
Method: Twelve-week old adult C57BL/6 mice underwent tail vein injections using standard protocols as previously described for the systemic delivery of plasmid DNA (Faul et al., 2008). Briefly, mice were placed in a restrainer and 40 μg/kg of FGF23 dissolved in 200 μl of PBS were injected into the tail vein of 5 mice twice daily with eight hours in between injections for 5 consecutive days. Four mice underwent the same injection schedule using 200 μl of PBS alone as negative control. On the morning of the 6th day, 16 hours after the final tail vein injections, animals were sacrificed and the hearts were isolated and prepared using the same protocol as described above.
Short-axis cardiac sections were used to quantify myocardial thickness by measuring the distance from the inner to the outer myocardial zone at the mid-chamber zone. […] Since klothro-ablated kl/kl mice display severe growth retardation with small hearts (Kuro-o et al., Nature, 390(6655):45-51, 1997), we also measured relative wall thickness calculated as two times the anterior wall thickness divided by left ventricular internal diameter. Total RNA was isolated from flash frozen hearts using TRIzol (Invitrogen) and RT-PCR analyses were performed as described above.
We measured cross-sectional surface area of cardiac myocytes in paraffin-embedded short-axis sections of the heart. Briefly, 7 μm thick sections were deparaffinized according to our established protocols. To specifically label cardiac myocytes, we used mouse monoclonal MF20 antibody against sarcomeric myosin at 1:200 and Cy5-conjugated donkey-anti mouse (Invitrogen) as secondary antibody at 1:400. To visualize nuclei, fixed tissue was incubated with 4′,6-diamidino-2-phenylindole (DAPI; 400 ng/ml in PBS) for 5 minutes. To visualize cellular borders, fixed tissue was incubated with wheat germ agglutinin (WGA) conjugated to Alexa Fluor 555 (Invitrogen) at 1 mg/ml in PBS containing 10 mM sodium azide. Immunofluorescence images were taken on a Leica TCS-SP5 confocal microscope with a 63× oil objective. Leica AF6000 fluorescence software was used to quantify cross-sectional cell surface area of 25 cells per field at four fields along the mid-chamber free wall based on WGA-positive staining.
Next, we wanted to determine the effectiveness of this FGFR trapping system on FGF-induced LVH in mice. To our knowledge, Fc decoy receptors have not yet been used to study FGFR function in vivo in any biological context, but served as valuable tools to analyze the functions of other receptor tyrosine kinases, like receptors for vascular endothelial growth factor (VEGFR) and their role in tumor growth and metastasis. We used similar Fc-FGFR concentrations as described for Fc-VEGFR in animal models of cancer (Lin J et al., Cancer Res. 2005; 65(15):6901-9).

Q: With `COc1cccc(-c2cc(=O)c3ccccc3o2)c1N` [PD98059] as the molecule, how does the “FGF2-induced increase in cell surface area (hypertrophy) in presence of inhibitor” value (from here on “FGF2-induced increase … of inhibitor”) [1] read?
A: completely prevented

Q: And the “FGF23-induced increase in cell surface area (hypertrophy) in presence of inhibitor” value (shortened to “FGF23-induced increase … of inhibitor”) [1]?
A: only partially diminished

Q: Which “expression of β-MHC protein in FGFR4−/− NMVM” value ([2]; immunoblot) does the source give for “angiotensin (Ang) II [AngII, pro-hypertrophic angiotensin II (Sigma-Aldrich), reference compound]” here?
A: induced this effect

Q: And the “expression of β-MHC protein in wild-type NMVM” value ([2]; immunoblot)?
A: increased expression

Q: And the “cross-sectional area (size) of NMVM from FGFR4−/− mice” value ([2]; FGF 100 ng/ml, AngII 1 μM)?
A: increase the size

Q: And the “cross-sectional area of wild-type NMVM” value ([2]; FGF 100 ng/ml, AngII 1 μM)?
A: significant increases

Q: For `N#CC(=C(/N)Sc1ccccc1N)/C(C#N)=C(\N)Sc1ccccc1N` [U0126], which “FGF2-induced increase … of inhibitor” value [1] is on record?
A: completely prevented

Q: What about the “FGF23-induced increase … of inhibitor” value [1] of the same molecule?
A: only partially diminished

Q: How did the “FGF2-induced increase … of inhibitor” value [1] turn out when `COc1ccc2c(c1)CC[C@@H]1[C@@H]2CC[C@]2(C)[C@@H](NCCCCCCN3C(=O)C=CC3=O)CC[C@@H]12` [U73122] was run?
A: had no effect

Q: And the “FGF23-induced increase … of inhibitor” value [1]?
A: attenuated

Q: What does the source list for “FGF19: endocrine fibroblast growth factor 19”?
A: induction of LVH (C57BL/6 mice): significant induction of LVH; cell surface area [1]: significant dose-dependent increase

Q: FGF4 was tested. Which cell surface area [1] did it give?
A: no change in size; also recorded: did not induce a hypertrophic response

Q: Which results are given for `O=c1[nH]c2ccccc2n1C1CCN(Cc2ccc(-c3nc4cc5nc[nH]c5cc4nc3-c3ccccc3)cc2)CC1` [A6730]?
A: FGF2-induced increase in cell surface area (hypertrophy) in presence of inhibitor [1]: partially attenuated; FGF23-induced increase in cell surface area (hypertrophy) in presence of inhibitor [1]: did not significantly alter

B1: FGF21: endocrine fibroblast growth factor 21 (protein, UniProt Q9NSA1 29-209, looked up)
Fibroblast growth factor 21: HPIPDSSPLLQFGGQVRQRYLYTDDAQQTEAHLEIREDGTVGGAADQSPESLLQLKALKPGVIQILGVKTSRFLCQRPDGALYGSLHFDPEACSFRELLLEDGYNVYQSEAHGLPLHLPGNKSPHRDPAPRGPARFLPLPGLPPALPEPPGILAPQPPDVGSSDPLSMVGPSQGRSPSYAS
Q: How did the “induction of LVH” value (C57BL/6 mice) turn out when B1 was run?
A: significant induction of LVH

Q: And the cell surface area [1]?
A: significant dose-dependent increase
